In general, MIC refers to the least concentration at which growth counts as inhibited. A low value points to a more susceptible organism.

This note sets out measurements from article PMC4184853, “Biohybrid Polymer-Antimicrobial Peptide Medium against Enterococcus faecalis” (PLoS ONE, 2014).

Holding throughout (type): cell-based, Enterococcus faecalis
Assay [1] relates to E. faecalis (ATCC #v583). The procedure:
(§1) E. faecalis (ATCC #v583), was cultured overnight in 5 ml brain-heart infusion (BHI) (Difco, Detroit, MI, USA) broth supplemented with 2 mg/ml vancomycin (Sigma-Aldrich), at 37°C under aerobic conditions. The top 4 ml were transferred to a fresh test tube and the optical density (OD) was determined according to the specific experiment.
The antibacterial activity of the peptides was examined using the microdilution assay. Briefly, the bacterial suspension (at OD 0.3) was diluted at a ratio of 1∶1000. Aliquots of 150 µl of bacterial suspension were added to 50 µl of peptide dilutions in phosphate buffered saline (PBS) (Sigma-Aldrich) (in triplicate for each concentration) in a 96-well plate (Nunc 96 microtiter plates, Roskilde, Denmark). The optical density (595 nm) in each well was recorded every 20 min using a microplate reader (VERSAmax tunable microplate reader, molecular devices, Sunnyvale, CA, USA) at 37°C for 18–24 hrs. The minimal inhibitory concentration (MIC) was determined as the concentration which inhibited visible growth after 18–24 hrs.

In the next assay the test system is E. faecalis biofilms. As to the kind of experiment: Antibiofilm activity, crystal violet biomass assay. The note with it: biofilm grown 72 hrs in saliva-coated 96 well plates in presence of test material. The procedure: (§2) Antibiofilm activity was tested on E. faecalis biofilms grown for 72 hrs. Biofilm was formed in microtiter plates (24 well plates for the ATP bioluminescence assay and 96 well plates for the crystal violet biomass assay and confocal laser spectroscopy). Saliva was collected from one donor and DL-Dithiolthreitol (DTT) (Thermo Scientific, Abu-Gosh, Israel) was added to 2.5 mM. The suspension was kept at 4°C for 10 min and then centrifuged for 15 min at 6,500×g. The supernatant was transferred to a fresh sterile tube and diluted to 25% with sterile double distilled water (DDW). The diluted saliva was disinfected using a 0.2 µm vacuum-driven filter (0.22 µm, […], Jet biofil, Belgium). […] Bacterial metabolism in the attached biofilm was assessed using ATP bioluminescence. Biofilm mass was measured using crystal violet as described below.
The total biofilm yield was assessed using crystal violet staining as follows. […] The acetic acid was transferred to wells of a new 96-well microtiter plate that was placed in a microplate reader and absorbance (OD595 nm) was measured.
Figure 3 Effect of the antimicrobial peptides on the development of E. faecalis biofilms. […] The biofilm was stained with 1% crystal violet measured at OD 595 nm (see Materials and Methods). […]

Assay [2] relates to E. faecalis biofilm. As to the kind of experiment: Antibiofilm activity, ATP bioluminescence. As to conditions: biofilm exposed 72 hrs, 24 well plates; compared with untreated E. faecalis. The procedure: as §2
Bacterial killing was evaluated by measuring intracellular ATP levels, an energy parameter commonly used as an indicator of cell injury and viability. […] ATP levels were determined using an ATP bioluminescence assay kit (CLS 2, Roch Diagnostics, Mannheim, Germany). In a 96 microtiter plate designed for luminescence assay (Thermo Scientific, NUNC, 96-well optical Btm Plt white, Rochester, NY, USA) a 100 µl volume of the samples was added to 6 wells for each tested group. […]

Assay [3] has as its system E. faecalis biofilm. Nature of the assay: Bacterial vitality in biofilm, live/dead staining with confocal microscopy. As to conditions: 72 hrs contact during biofilm formation. The procedure: as §2
Confocal laser scanning microscopy (CLSM) was used to explore the vitality of bacteria in the different depth layers of the biofilm. […] To read the results directly, the wells were coated with emulsion oil to prevent dehydration. Fluorescence emission was detected using a Zeiss LSM 410 confocal laser scanning microscope (Carl Zeiss Microscopy, Jena, Germany). Red fluorescence was measured at 630 nm and green fluorescence at 520 nm; objective lenses: x60/oil, 1.4 numerical aperture. […]

The test system of assay [4] is E. faecalis (ATCC #v583). Nature of the assay: Growth curves with soluble peptide: percent growth reduction and generation time. As to conditions: concentrations below 5 µg/ml. The protocol:
as §1
The antibacterial activity of the peptides was examined using the microdilution assay. Briefly, the bacterial suspension (at OD 0.3) was diluted at a ratio of 1∶1000. […] The optical density (595 nm) in each well was recorded every 20 min using a microplate reader (VERSAmax tunable microplate reader, molecular devices, Sunnyvale, CA, USA) at 37°C for 18–24 hrs. The minimal inhibitory concentration (MIC) was determined as the concentration which inhibited visible growth after 18–24 hrs.
The presented data are the mean and standard deviation of triplicates of a representative experiment repeated three times. The growth mean, and multiple comparisons of growth inhibition by AMP (compared with the growth of untreated bacteria) were calculated from each growth curve using Student’s t-test. […]
Figure 1 E. faecalis growth is inhibited by C16-KGGK but not by hBD3. Growth of E. faecalis was measured (see Materials and Methods) in the presence of increasing concentrations of hBD3 (A) or of the lipopeptide KGGK (B). […]

Like-named read-outs stand apart in the source and are kept apart here. Non-standard residues stand in square brackets, D forms with d. Residues, ends and D or L forms follow the SMILES beside them. *: point of attachment. Palmitoyl = CCCCCCCCCCCCCCCC(=O)*

`CC(C)C[C@H](NC(=O)[C@H](CC(C)C)NC(=O)[C@@H](CCCCN)NC(=O)[C@H](CC(C)C)NC(=O)[C@H](CC(C)C)NC(=O)[C@H](CCCCN)NC(=O)[C@@H](CCCCN)NC(=O)[C@@H](CC(C)C)NC(=O)[C@H](CC(C)C)NC(=O)[C@@H](CCCCN)NC(=O)[C@H](CCCCN)NC(=O)[C@H](CC(C)C)NC(=O)[C@@H](CC(C)C)NC(=O)[C@H](CCCCN)NC(=O)[C@@H](N)CC(C)C)C(N)=O` [Amp-1D] (H-LK[dL]LK[dK]L[dL][dK]KLL[dK]LL-NH2; N-terminus assumed) registered a minimal inhibitory concentration (MIC) against E. faecalis (ATCC #v583) [1] (ATCC #v583) above 25 µg/mL.
In the assay on E. faecalis (ATCC #v583) [1] (ATCC #v583), `CCCCCCCCCCCCCCCC(=O)N[C@@H](CCCCN)C(=O)N[C@@H](C)C(=O)N[C@@H](C)C(=O)N[C@@H](CCCCN)C(N)=O` [C16-KAAK] (Palmitoyl-KAAK-NH2) came in with an MIC of 12.5 to 25 µg/mL.
Molecule `CCCCCCCCCCCCCCCC(=O)N[C@@H](CCCCN)C(=O)N[C@@H](CC(C)C)C(=O)N[C@@H](CC(C)C)C(=O)N[C@@H](CCCCN)C(N)=O` [C16-KLLK] (Palmitoyl-KLLK-NH2) gave a minimum inhibitory concentration (MIC) with E. faecalis (ATCC #v583) [1] (ATCC #v583) of 6 to 12.5 µg/mL.
For the molecule “GIINTLQKYYCRVRGGRCAVLSCLPKEEQIGKCSTRGRKCCRRKK [hBD3, Human recombinant β-defensin 3 obtained from PeproTech, reference compound]”, in the assay with E. faecalis (ATCC #v583) [1] (planktonic E. faecalis ATCC v583, BHI, 37°C, 18–24 hrs, OD 595 nm, triplicate per concentration), the MIC was above 20 µg/mL.
Take `CCCCCCCCCCCCCCCC(=O)N[C@@H](CCCCN)C(=O)N[C@@H](CCCCN)C(=O)N[C@@H](CCCCN)C(N)=O` [C16-KKK]: in the assay on E. faecalis (ATCC #v583) [1] (ATCC #v583), the MIC lay in the range of 6 to 12.5 µg/mL. In the assay with E. faecalis biofilms, the “anti-biofilm effect (biofilm mass, crystal violet, OD 595 nm)” value is on record as “showed anti-biofilm activity”.
In the case of `CCCCCCCCCCCCCCCC(=O)N[C@@H](CCCCN)C(=O)NCC(=O)NCC(=O)N[C@@H](CCCCN)C(N)=O` [C16-KGGK] (Palmitoyl-KGGK-NH2), the “ATP levels in biofilm (luminescence)” value with E. faecalis biofilm [2] is “relatively low compared with that in the untreated control”. The MIC against E. faecalis (ATCC #v583) [1] (ATCC #v583) is 4 to 5 µg/mL. Besides, the “concentration causing complete growth inhibition” value in the assay with E. faecalis (ATCC #v583) [1] (planktonic E. faecalis, microdilution, 18–24 hrs) was found to be 5 µg/mL. Also, the “vitality of biofilm bacteria (live/dead stain, CLSM)” value in the assay with E. faecalis biofilm [3] was “induced death in the biofilm bacteria”. Further, the “growth of E. faecalis at sub-inhibitory concentrations” value in the assay with E. faecalis (ATCC #v583) [4] was “accelerated”.
